Test results: PubChem BioAssay (NCI)
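Interpolation was linear, between the two tested concentrations surrounding the appropriate level; five concentrations were tested over 48 hours in 96-well plates. Definition used: TGI = concentration required for complete inhibition of growth.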

Tests used:
Assay in all cases: growth of human tumour cells (NCI), 48 h
MALME-3M melanoma = system: MALME-3M melanoma
NCI-H226 lung = system: NCI-H226 lung
EKVX NSCLC = system: EKVX NSCLC
K-562 leukemia = system: K-562 leukemia
SN12C renal = system: SN12C renal
HT29 colon = system: HT29 colon
RXF 393 renal = system: RXF 393 renal
U251 CNS = system: U251 CNS
DMS 273 small cell lung = system: DMS 273 small cell lung
CCRF-CEM leukemia = system: CCRF-CEM leukemia
OVCAR-4 ovarian = system: OVCAR-4 ovarian
RPMI-8226 leukemia = system: RPMI-8226 leukemia
SK-MEL-2 melanoma = system: SK-MEL-2 melanoma
HOP-62 NSCLC = system: HOP-62 NSCLC
NCI-H522 lung = system: NCI-H522 lung
SK-MEL-5 melanoma = system: SK-MEL-5 melanoma
NCI-H460 lung = system: NCI-H460 lung
KM12 colon = system: KM12 colon
UACC-257 melanoma = system: UACC-257 melanoma
COLO 205 colon = system: COLO 205 colon
TK-10 renal = system: TK-10 renal
HCC-2998 colon = system: HCC-2998 colon
MOLT-4 leukemia = system: MOLT-4 leukemia
OVCAR-3 ovarian = system: OVCAR-3 ovarian
DMS 114 small cell lung = system: DMS 114 small cell lung
SK-MEL-28 melanoma = system: SK-MEL-28 melanoma
ACHN renal = system: ACHN renal
HCT-116 colon = system: HCT-116 colon
SF-295 CNS = system: SF-295 CNS
CAKI-1 renal = system: CAKI-1 renal
LOX IMVI melanoma = system: LOX IMVI melanoma
DLD-1 colon = system: DLD-1 colon
SW-620 colon = system: SW-620 colon
OVCAR-8 ovarian = system: OVCAR-8 ovarian
UO-31 renal = system: UO-31 renal
NCI-H23 lung = system: NCI-H23 lung
SNB-75 CNS = system: SNB-75 CNS
SR leukemia = system: SR leukemia
LXFL 529 NSCLC = system: LXFL 529 NSCLC
M14 melanoma = system: M14 melanoma
M19-MEL melanoma = system: M19-MEL melanoma
HOP-92 NSCLC = system: HOP-92 NSCLC
HCT-15 colon = system: HCT-15 colon
OVCAR-5 ovarian = system: OVCAR-5 ovarian
SF-268 CNS = system: SF-268 CNS
HOP-18 NSCLC = system: HOP-18 NSCLC
KM20L2 colon = system: KM20L2 colon
A549 NSCLC = system: A549 NSCLC
SF-539 CNS = system: SF-539 CNS
SK-OV-3 ovarian = system: SK-OV-3 ovarian
IGROV1 ovarian = system: IGROV1 ovarian
A498 renal = system: A498 renal
SNB-19 CNS = system: SNB-19 CNS
786-0 renal = system: 786-0 renal
SNB-78 CNS = system: SNB-78 CNS
UACC-62 melanoma = system: UACC-62 melanoma

## O=C1CN2C(Cl)(Cl)C2(c2ccccc2)c2cc(Cl)ccc2N1CC1CC1 (centres undefined)
MALME-3M melanoma
  TGI: 32 µM
NCI-H226 lung
  TGI: 41.6 µM
EKVX NSCLC
  TGI: 89.1 µM
K-562 leukemia
  TGI: 65.8 µM
SN12C renal
  TGI: 35.5 µM
HT29 colon
  TGI: 44.9 µM
RXF 393 renal
  TGI: 35.9 µM
U251 CNS
  TGI: 34.7 µM
DMS 273 small cell lung
  TGI: 63.2 µM
CCRF-CEM leukemia
  TGI: 61.4 µM
OVCAR-4 ovarian
  TGI: > 100 µM
RPMI-8226 leukemia
  TGI: 81.8 µM
SK-MEL-2 melanoma
  TGI: 33.4 µM
HOP-62 NSCLC
  TGI: 50.3 µM
NCI-H522 lung
  TGI: 38.2 µM
SK-MEL-5 melanoma
  TGI: 35.7 µM
NCI-H460 lung
  TGI: 32 µM
KM12 colon
  TGI: 30.2 µM
UACC-257 melanoma
  TGI: 40.9 µM
COLO 205 colon
  TGI: 38.8 µM
TK-10 renal
  TGI: > 100 µM
HCC-2998 colon
  TGI: 33.4 µM
MOLT-4 leukemia
  TGI: 54.8 µM
OVCAR-3 ovarian
  TGI: 33.8 µM
DMS 114 small cell lung
  TGI: 85.8 µM
SK-MEL-28 melanoma
  TGI: 32.9 µM
ACHN renal
  TGI: 65.8 µM
HCT-116 colon
  TGI: 35.8 µM
SF-295 CNS
  TGI: 47.1 µM
CAKI-1 renal
  TGI: > 100 µM
LOX IMVI melanoma
  TGI: 31.6 µM
DLD-1 colon
  TGI: 44.2 µM
SW-620 colon
  TGI: > 100 µM
OVCAR-8 ovarian
  TGI: 29.8 µM
UO-31 renal
  TGI: 66.6 µM
NCI-H23 lung
  TGI: 51.7 µM
SNB-75 CNS
  TGI: 94.8 µM
SR leukemia
  TGI: 68.6 µM
LXFL 529 NSCLC
  TGI: > 100 µM
M14 melanoma
  TGI: 36.6 µM
M19-MEL melanoma
  TGI: 93.8 µM
HOP-92 NSCLC
  TGI: 26.2 µM
HCT-15 colon
  TGI: 48.9 µM
OVCAR-5 ovarian
  TGI: > 100 µM
SF-268 CNS
  TGI: 86.1 µM
HOP-18 NSCLC
  TGI: 81.2 µM
KM20L2 colon
  TGI: 88.5 µM

## O=[N+]([O-])c1ccc(C2=NN(c3ccccc3)C[N+](c3ccc(Br)cc3)=N2)cc1
MALME-3M melanoma
  TGI: > 100 µM
NCI-H226 lung
  TGI: > 100 µM
EKVX NSCLC
  TGI: > 100 µM
K-562 leukemia
  TGI: > 100 µM
SN12C renal
  TGI: > 100 µM
HT29 colon
  TGI: > 100 µM
RXF 393 renal
  TGI: 79.8 µM
U251 CNS
  TGI: > 100 µM
A549 NSCLC
  TGI: > 100 µM
DMS 273 small cell lung
  TGI: > 100 µM
OVCAR-4 ovarian
  TGI: > 100 µM
RPMI-8226 leukemia
  TGI: > 100 µM
SK-MEL-2 melanoma
  TGI: > 100 µM
HOP-62 NSCLC
  TGI: > 100 µM
SF-539 CNS
  TGI: > 100 µM
NCI-H522 lung
  TGI: > 100 µM
SK-MEL-5 melanoma
  TGI: > 100 µM
NCI-H460 lung
  TGI: > 100 µM
KM12 colon
  TGI: > 100 µM
UACC-257 melanoma
  TGI: > 100 µM
COLO 205 colon
  TGI: > 100 µM
SK-OV-3 ovarian
  TGI: > 100 µM
TK-10 renal
  TGI: > 100 µM
IGROV1 ovarian
  TGI: > 100 µM
A498 renal
  TGI: > 100 µM
HCC-2998 colon
  TGI: > 100 µM
SNB-19 CNS
  TGI: > 100 µM
MOLT-4 leukemia
  TGI: > 100 µM
SK-MEL-28 melanoma
  TGI: > 100 µM
ACHN renal
  TGI: > 100 µM
786-0 renal
  TGI: > 100 µM
HCT-116 colon
  TGI: > 100 µM
SF-295 CNS
  TGI: > 100 µM
CAKI-1 renal
  TGI: > 100 µM
DLD-1 colon
  TGI: > 100 µM
SW-620 colon
  TGI: > 100 µM
OVCAR-8 ovarian
  TGI: > 100 µM
UO-31 renal
  TGI: > 100 µM
NCI-H23 lung
  TGI: > 100 µM
SNB-75 CNS
  TGI: > 100 µM
SR leukemia
  TGI: > 100 µM
LXFL 529 NSCLC
  TGI: > 100 µM
SNB-78 CNS
  TGI: > 100 µM
UACC-62 melanoma
  TGI: > 100 µM
M14 melanoma
  TGI: > 100 µM
M19-MEL melanoma
  TGI: > 100 µM
HOP-92 NSCLC
  TGI: > 100 µM
HCT-15 colon
  TGI: > 100 µM
OVCAR-5 ovarian
  TGI: > 100 µM
SF-268 CNS
  TGI: > 100 µM
HOP-18 NSCLC
  TGI: > 100 µM
KM20L2 colon
  TGI: > 100 µM
